The source of these data is US20040062743A1, “Acid-containing desensitization agents for teeth” (priority 2002, published 2004).

SMILES strings stand for the structures.

By melting point is commonly meant the temperature, or range, at which the solid turns liquid.

The test system of series [1] is horse serum diluted with physiological common-salt solution, 2 mM CaCl2 (simulated dentinal fluid). The series can be described thus: Measurement of the protein precipitation (weight of dried precipitate). In kind it is biochemical. The note with it: for Precipitate: average of 5 measurements. The procedure: Furthermore, acids which also have calcium-precipitating properties in addition to protein-precipitating properties are particularly preferred. Protein and calcium-precipitating properties are detected in standardized tests. Protein precipitation is measured as described in Example 6, the acids to be examined in the solution described in Example 5 (2nd component) being present in a concentration of 0.2 M. The acid-containing solution is mixed with the protein solution described in Example 6 and the mass of the obtained precipitate is determined. According to the invention, acids which yield a pellet weight of >25 mg, preferably >30 mg and in particular >40 mg are preferred. The upper limit of the pellet weight is determined by the masses of the components used. Acids which yield a quantitative precipitation under the described conditions are particularly suitable according to the invention.
Furthermore, CaCl2 (2 mM) was added to the diluted protein solution in order to adjust the calcium-ion concentration to that of dentinal fluid.
500 μl of the protein solution was then reacted with […] of the composition to be tested and the mixture was left to stand for 30 minutes at room temperature, centrifuged and the obtained precipitates dried at 75° C. and weighed.
For protein precipitation, the solution (2nd component) described in Example 5 was used which was reacted with phosphonic acid in concentrations of 10 mM to 200 mM (cf. Table 1). 5 precipitations per concentration were carried out and then the average of the determinations was calculated.

`C=C(COCCP(=O)(O)O)C(=O)O` [Example 1, 2-[4-(dihydroxyphosphoryl)-2-oxa-butyl]-acrylic acid] returned a melting point of 119 to 120 °C. Further, in series [1] (150 mM acid), the “Protein precipitation (in words)” value is recorded as “quantitative”. Besides, the Precipitate in series [1] (acid concentration 10 mM in solution (2nd component) of Example 5) is listed as 55.3 mg. Further, the Precipitate in series [1] (acid concentration 25 mM in solution (2nd component) of Example 5) is given as 58.2 mg. Moreover, the Precipitate in series [1] (acid concentration 50 mM in solution (2nd component) of Example 5) is reported as 58.8 mg. Moreover, the Precipitate in series [1] (acid concentration 75 mM in solution (2nd component) of Example 5) is on record as 69.1 mg. In addition, in series [1] (acid concentration 100 mM in solution (2nd component) of Example 5), the Precipitate is recorded as 70.8 mg. In addition, the Precipitate in series [1] (acid concentration 150 mM in solution (2nd component) of Example 5) is on record as 74.2 mg. Moreover, the Precipitate in series [1] (acid concentration 200 mM in solution (2nd component) of Example 5) is 72.3 mg.
